{"source": "patent US20190374508A1", "about": "“THERAPEUTIC TOPICAL COMPOSITIONS OF APREMILAST” (SARUDBHAVA FORMULATIONS PRIVATE LIMITED, priority 2017, published 2019)", "test_system": "TPA induced ear inflammation", "experiment": "12-O-Tetradecanoylphorbol-13-Acetate (TPA) induced ear inflammation in mice", "assay_type": "in vivo, Male C57BL/6 mice", "conditions": "for dose dependence of efficacy: topical test formulation", "experimental": "Efficacy of the test formulations was determined in studies using 12-O-Tetradecanoylphorbol-13-Acetate (TPA) induced ear inflammation in mice. Excessive proliferation of keratinocytes is a characteristic of psoriasis, and this cell type is a well reported target of therapy for this disease. In the present study, chronic skin inflammation was induced by repeated topical application of TPA, which is recognized by prolonged skin reaction & epidermal hyperplasia. The animal model used was Male C57BL/6 mice 6 to 8 weeks of age. Protocol: • a) Animals were randomized based on body weight and divided into six different groups consisting of 8 animals. • b) 20 μL of TPA solution containing 2 μg of TPA in vehicle (2% DMSO and 98% methanol) was applied topically on both ventral and dorsal side (10 μL each side) of the right ear of all the animals except group Group G1 on day 0, 2, 4, 7 and 9. • c) Group G1 and Group G2 were topically treated with placebo gel formulation on right ear. • d) Groups G3, G4 and G5 were topically treated with test compositions comprising apremilast (2% w/w, 4% w/w and 10% w/w concentration). • e) Group G6 was topically treated with 0.1% Betamethasone valerate cream. • f) All the formulations were uniformly applied, 25 mg each (50 mg per animal), in anterior and posterior region of the right ear daily from day 0 to day 10."}
{"smiles": "CCOc1cc([C@@H](CS(C)(=O)=O)N2C(=O)c3cccc(NC(C)=O)c3C2=O)ccc1OC", "note": "[apremilast, N-[2-[(1S)-1-(3-ethoxy-4-methoxyphenyl)-2-(methylsulfonyl)ethyl]-2,3-dihydro-1,3-dioxo-1H-isoin-dol-4-yl]acetamide]", "values": [{"measurement": "efficacy against ear inflammation", "setting": "daily topical application of test formulation on right ear, day 0 to day 10, tested concentrations 2%, 4% and 10% apremilast", "value": "effective against ear inflammation"}, {"measurement": "reduction on ear edema", "setting": "topical test formulation containing 2% apremilast", "value": "poor reduction on ear edema which tapered off by day-9"}, {"measurement": "dose dependence of efficacy", "setting": "10% concentration of apremilast", "value": "saturation of efficacy"}, {"measurement": "dose dependence of efficacy", "setting": "between 2% and 4% apremilast", "value": "Dose-dependent increase in efficacy"}]}
